The values below come from patent publication US20140057901A1, “XANTHINE DERIVATIVES, THE PREPARATION THEREOF AND THEIR USE AS PHARMACEUTICAL COMPOSITIONS” (Boehringer Ingelheim Pharma GmbH & Co. KG, priority 2001, published 2014).

Regarding `CC(C)=CCn1c(N2CCC(CN)CC2)nc2c1c(=O)n(C)c(=O)n2C` [Example 2(105), 1,3-dimethyl-7-(3-methyl-2-buten-1-yl)-8-(4-aminomethyl-piperidin-1-yl)-xanthine], the melting point lay in the range of 110 to 112 °C.

A word on the melting point: it is the temperature of the solid-liquid transition.
